Where two headings read alike, the source gives them in different places.
Key:
[1] = target: murine TRPM7 (Mus musculus, UniProt Q923J1); conditions: for dose dependence of inhibition of TRPM7-mediated fura-2 quench by Mn2+: serial dilutions, 15 min pre-incubation
Description: Wild type (non-transfected) human embryonic kidney (WT-HEK293) cells and tetracycline-inducible HEK293 cells, stably transfected with a FLAG-murine TRPM7/pcDNA4/TO construct (TRPM7-HEK293), were cultured in a humidified incubator, at 37° C. and 5% CO2, in DMEM supplemented with 10% FBS and 2 mM L-glutamine. Wild type HEK293 culture medium was supplemented with 100 U/mL penicillin and 0.10 mg/mL streptomycin. TRPM7-HEK293 culture medium was supplemented with 5 μg/mL blasticidin and 0.4 mg/mL zeocin.
TRPM7 channel conductance was monitored using a FlexStation 3 scanning fluorometer (Molecular Devices, Sunnyvale, Calif.) to monitor the Ca^2+-independent (360 nm excitation/510 nm emission) fura-2 quench by Mn^2+ in TRPM7 overexpressing HEK293 cells. The FlexStation 3 measured the fluorescent signal intensity in relative fluorescence units (RFU), at 1.5 s intervals for 60 s using a beam diameter of 1.5-2.0 mm. Following baseline measurements, Mn^2+ was added extracellularly and changes in cytosolic [Mn^2+] were monitored as the loss of relative fluorescence caused by fura-2 quenching. TRPM7-HEK293 cells (30,000, 60,000 or 120,000 cells/well) were plated in poly-L-lysine coated, black clear-bottom 96-well plates (Greiner Bio-One, Monroe, N.C.). Subsequent TRPM7-expression was induced 2-3 h post plating by the addition of 1 μg/mL tetracycline. The culture medium was completely removed at 16-18 h post induction and replaced with the following fura-2 loading-buffer: KRH buffer supplemented with 2 μM fura-2-AM, with or without 2 mM probenecid, and with or without 0.1-0.3% pluronic F-127. Following variable incubation times (30, 45 and 60 min at 25 or 37° C.) the loading buffer was removed and replaced with assay buffer (KRH). The plates were then transferred to a room temperature (25° C.) or pre-warmed (37° C.) FlexStation which also contained a clear V-bottom 96-well compound plate (Greiner Bio-One) with vehicle or appropriate test substance solutions diluted with KRH. Cells were initially incubated for 15 min with the appropriate test substance solutions. Just prior to the addition of 1 or 10 mM MnCl2 the baseline fluorescence was recorded for 20 s. The Ca^2+-independent, TRPM7-mediated fura-2 quench by Mn^2+ was then recorded for 40 s.
Fluorescence data was collected in SoftMax Pro (Molecular Devices) and processed in Microsoft Excel 2007. Replicate fluorescence traces (time vs. intensity) were averaged and the Z′-factors were calculated. Mean, standard deviation (sdev), and Z′-factors at each time point were plotted using IGOR PRO (Wavemetrics). […] These values were background-corrected (WT-HEK293 signal subtracted) and normalized to vehicle controls.
TRPM7-HEK293 cells and HEK293 cells were plated at 60,000 cells/well. Cells were incubated at 37° C. for 60 min with KRH containing 2 mM probenecid, 0.1% pluronic F-127, and 2 μM fura-2-AM. After a wash step, the cells were pre-incubated with LaCl3 (serial diluted 2:1 from 7.0 mM to 9.6 μM) or 2-APB (serial diluted 2:1 from 500-0.69 μM) at 37° C. for 15 min during baseline measurements.

[2] = target: T1, TRPM7 (Mus musculus, UniProt Q923J1); experiment: Whole-cell patch-clamp of TRPM7 currents in HEK293-TRPM7; type: cell-based; parameters: FLAG; expressed in transfected cells; host or cells: tetracycline-inducible HEK293 cells (pcDNA4/TO vector); conditions: for IC50: read-out: IC50, inhibition of TRPM7 currents
Description: Error bars represent S.E.M. Corresponding I/V relationships are representative currents in response to voltage ramps obtained at 500 s. […] Currents were extracted at +80 mV at 500 s, normalized to the maximal current amplitude before application (200 s), plotted against waixenicin A concentration, and approximated by dose-response fit function (n=8-10). […] Same analysis as in FIG. 9A. Error bars represent S.E.M.
Patch-clamp experiments were performed in the whole-cell configuration at 24° C. All data were acquired with PatchMaster (HEKA) software controlling an EPC-9 amplifier (HEKA, Lambrecht, Germany) and analyzed using FitMaster (HEKA) and IGOR PRO (Wavemetrics, USA). Voltage ramps of 50 ms spanning from −100 to +100 mV were delivered from a holding potential of 0 mV at a rate of 0.5 Hz. Voltages were corrected for liquid junction potentials (10 mV). Currents were filtered at 2.9 kHz and digitized at 100 μs intervals. Current amplitudes were extracted at +80 mV and −80 mV for analysis and display.
To activate TRPM7 currents, intracellular Mg^2+ and Mg-ATP were washed out by perfusion with Mg^2+- and ATP-free internal solution. Whole-cell currents were elicited by voltage ramps from −100 to +100 mV delivered at 0.5 Hz and current amplitudes were extracted at +80 mV and plotted versus time of the experiment. […] The corresponding current-voltage (I/V) relationships are illustrated by representative ramp currents extracted at 500 s. […] Outward and inward TRPM7 currents responded in a similar manner to waixenicin A treatment (FIG. 10A), resulting in the same IC50.
To better mimic physiologic conditions, we clamped the intracellular solution to 700 μM free internal Mg^2+ and only omitted Mg-ATP to achieve TRPM7 activation. […] The corresponding I/V relationships are illustrated by representative ramp currents.

[3] = target: T1, TRPM7; parameters: host or cells: TRPM7-HEK293 and CHOK1-TRPM7 cells as reported earlier; conditions: cited from earlier work
[4] = read-out: IC50, inhibition of the TRPM7-mediated fura-2 quench by Mn2+, TRPM7-HEK293, 15 min pre-incubation at 37° C., 10 mM MnCl2, endpoint 10 s after MnCl2 addition

Chain of murine TRPM7 (Q923J1 whole entry): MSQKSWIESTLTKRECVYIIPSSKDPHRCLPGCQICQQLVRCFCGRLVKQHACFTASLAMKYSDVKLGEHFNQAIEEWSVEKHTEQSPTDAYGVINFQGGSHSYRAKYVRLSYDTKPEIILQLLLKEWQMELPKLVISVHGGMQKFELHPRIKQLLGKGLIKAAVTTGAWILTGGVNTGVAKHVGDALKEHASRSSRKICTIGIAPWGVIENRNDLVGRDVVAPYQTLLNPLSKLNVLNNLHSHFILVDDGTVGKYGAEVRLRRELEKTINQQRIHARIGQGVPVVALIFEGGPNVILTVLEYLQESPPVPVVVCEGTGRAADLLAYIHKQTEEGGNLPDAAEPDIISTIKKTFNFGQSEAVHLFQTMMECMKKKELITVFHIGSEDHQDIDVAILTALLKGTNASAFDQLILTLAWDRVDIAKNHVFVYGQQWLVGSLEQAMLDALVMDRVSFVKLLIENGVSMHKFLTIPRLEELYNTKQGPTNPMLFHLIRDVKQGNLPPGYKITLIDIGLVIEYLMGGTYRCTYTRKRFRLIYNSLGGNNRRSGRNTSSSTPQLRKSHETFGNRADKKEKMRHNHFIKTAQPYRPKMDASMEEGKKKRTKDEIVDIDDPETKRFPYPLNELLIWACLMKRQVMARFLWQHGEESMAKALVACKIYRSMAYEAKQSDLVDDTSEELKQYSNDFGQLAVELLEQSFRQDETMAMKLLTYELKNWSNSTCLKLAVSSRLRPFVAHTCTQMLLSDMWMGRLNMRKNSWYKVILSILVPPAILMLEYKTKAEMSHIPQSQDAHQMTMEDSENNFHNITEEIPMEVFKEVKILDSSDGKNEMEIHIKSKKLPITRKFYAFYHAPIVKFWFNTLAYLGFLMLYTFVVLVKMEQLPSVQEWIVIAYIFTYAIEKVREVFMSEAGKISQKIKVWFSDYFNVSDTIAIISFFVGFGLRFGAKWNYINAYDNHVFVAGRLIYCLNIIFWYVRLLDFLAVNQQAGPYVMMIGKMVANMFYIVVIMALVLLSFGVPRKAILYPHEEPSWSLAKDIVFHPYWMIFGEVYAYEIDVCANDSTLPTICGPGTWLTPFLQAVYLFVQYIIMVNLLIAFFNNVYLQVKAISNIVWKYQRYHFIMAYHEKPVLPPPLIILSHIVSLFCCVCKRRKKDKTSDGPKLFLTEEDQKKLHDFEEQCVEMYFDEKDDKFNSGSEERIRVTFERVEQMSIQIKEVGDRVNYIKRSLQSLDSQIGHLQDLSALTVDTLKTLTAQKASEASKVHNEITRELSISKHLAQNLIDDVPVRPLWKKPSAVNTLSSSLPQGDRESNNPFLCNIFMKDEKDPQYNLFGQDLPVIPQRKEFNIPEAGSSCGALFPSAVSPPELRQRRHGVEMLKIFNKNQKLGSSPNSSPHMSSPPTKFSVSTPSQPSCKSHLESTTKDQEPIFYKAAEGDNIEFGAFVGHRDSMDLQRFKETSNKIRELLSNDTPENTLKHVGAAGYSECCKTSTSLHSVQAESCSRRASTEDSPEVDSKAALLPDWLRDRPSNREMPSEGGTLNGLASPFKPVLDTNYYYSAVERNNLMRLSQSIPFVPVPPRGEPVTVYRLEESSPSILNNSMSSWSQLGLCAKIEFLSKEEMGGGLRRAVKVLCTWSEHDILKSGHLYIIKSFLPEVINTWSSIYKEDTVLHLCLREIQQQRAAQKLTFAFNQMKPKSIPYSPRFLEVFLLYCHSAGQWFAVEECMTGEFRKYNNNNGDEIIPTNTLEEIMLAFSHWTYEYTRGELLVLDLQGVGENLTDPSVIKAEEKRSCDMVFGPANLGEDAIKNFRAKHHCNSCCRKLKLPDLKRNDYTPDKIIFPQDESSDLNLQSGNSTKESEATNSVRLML
T1 sequence (Q923J1 whole entry): as above

| dose dependence of inhibition of TRPM7-mediated fura-2 quench by Mn2+ [1] | IC50 [1, 4] | SMILES | IC50 ([1]; read-out: IC50 of the maximal slope of the Mn2+ quench, HEK293-TRPM7, 15 min incubation before 10 mM MnCl2) | IC50 ([2]; 0 [Mg2+]i, outward currents at +80 mV at 500 s) | inhibition of TRPM7 currents ([2]; 10 μM for 300 s, +80 mV, Mg2+- and ATP-free internal solution) | TRPM7 current density after application ([2]; 10 μM for 300 s, +80 mV, Mg2+- and ATP-free internal solution, plateau about 130 pA/pF before) | block of TRPM7 current ([2]; 10 μM, 700 μM free internal Mg2+, Mg-ATP omitted) | IC50 ([2]; 700 μM free internal Mg2+) | reversibility of inhibitory effect on washout ([2]; washout for another 300 s) | effect on Mn2+-induced fluorescence quench ([1]; FIG. 8A, 10 mM MnCl2, HEK293-TRPM7) | block of channel conductance ([3]; 10 μM) | block of inward TRPM7-mediated currents ([3]; 10 mM) | stability of stock solution in cold storage (-20° C., 50 mM in MeOH) | stability of dried film, vacuum packed aliquots (stored at -20° C.) | inhibition of TRPM7 mediated inward current ([3]; 100 μM, divalent-free extracellular solutions, TRPM7-HEK293) | IC50 ([3]; whole-cell recordings, TRPM7-HEK293 and CHOK1-TRPM7 cells, read-out: IC50, TRPM7 mediated outward current) |
| --- | --- | --- | --- | --- | --- | --- | --- | --- | --- | --- | --- | --- | --- | --- | --- | --- |
| dose dependent inhibition | 760 µM | [Cl][La]([Cl])[Cl] [La^3+, LaCl3] |  |  |  |  |  |  |  | reduced Mn^2+-induced fluorescence quench | ineffective | almost completely blocked |  |  |  |  |
| dose dependent inhibition | 56 µM | NCCOB(c1ccccc1)c1ccccc1 [2-APB, 2-aminoethoxydiphenyl borate] |  |  |  |  |  |  |  |  |  |  | apparent compound degradation over the course of one week | only remained fully potent when used within a two month period | 77% | 160 ± 14 µM |

| SMILES | dose dependence of inhibition of TRPM7-mediated fura-2 quench by Mn2+ [1] | IC50 [1, 4] | IC50 ([1]; read-out: IC50 of the maximal slope of the Mn2+ quench, HEK293-TRPM7, 15 min incubation before 10 mM MnCl2) | IC50 ([2]; 0 [Mg2+]i, outward currents at +80 mV at 500 s) | inhibition of TRPM7 currents ([2]; 10 μM for 300 s, +80 mV, Mg2+- and ATP-free internal solution) | TRPM7 current density after application ([2]; 10 μM for 300 s, +80 mV, Mg2+- and ATP-free internal solution, plateau about 130 pA/pF before) | block of TRPM7 current ([2]; 10 μM, 700 μM free internal Mg2+, Mg-ATP omitted) | IC50 ([2]; 700 μM free internal Mg2+) | reversibility of inhibitory effect on washout ([2]; washout for another 300 s) | effect on Mn2+-induced fluorescence quench ([1]; FIG. 8A, 10 mM MnCl2, HEK293-TRPM7) | block of channel conductance ([3]; 10 μM) | block of inward TRPM7-mediated currents ([3]; 10 mM) | stability of stock solution in cold storage (-20° C., 50 mM in MeOH) | stability of dried film, vacuum packed aliquots (stored at -20° C.) | inhibition of TRPM7 mediated inward current ([3]; 100 μM, divalent-free extracellular solutions, TRPM7-HEK293) | IC50 ([3]; whole-cell recordings, TRPM7-HEK293 and CHOK1-TRPM7 cells, read-out: IC50, TRPM7 mediated outward current) |
| --- | --- | --- | --- | --- | --- | --- | --- | --- | --- | --- | --- | --- | --- | --- | --- | --- |
| C=C1CC/C=C(\C)CC[C@@H]2C([C@H](C/C=C(\C)COC(C)=O)OC(C)=O)=CO[C@H](OC(C)=O)[C@@H]12 [waixenicin A] | dose-dependent manner |  | 12 µM | 7 µM | approximately 50% | 67 pA/pF | completely blocked the current | 0.016 µM | failed to reverse its inhibitory effect |  |  |  |  |  |  |  |
